Reference: patent publication US20130210057A1, “USE OF LABEL-FREE BIOSENSORS TO UNDERSTAND AND IDENTIFY TREATMENT FOR CANCER” (CORNING INCORPORATED, priority 2012, published 2013)
Ends that are not written are not given here.

Legend:
Assay type in all cases: cell-based, human
[1] = test system: HCT116-PTEN Null cell line; experiment: Label-free RWG biosensor DMR assay
Source text: (§1) EPIC® beta version wavelength interrogation system (Corning Inc., NY) was used for whole cell sensing. This system consists of a temperature-control unit, an optical detection unit, and an on-board liquid handling unit with robotics. The detection unit is centered on integrated fiber optics, and enables kinetic measures of cellular responses with a time interval of ˜15 sec. Also EPIC® commercial systems were used, with a liquid handler accessory attached to EPIC® reader system. Also, an Epic® RWG imager can be used.
(§2) The resonant waveguide grating (RWG) biosensor is capable of detecting minute changes in local index of refraction near the sensor surface and the waveguide thin film having gratings provide a cell culture surface. Since the local index of refraction within a cell is a function of density and its distribution of biomass (e.g., proteins, molecular complexes), the biosensor exploits its evanescent wave to non-invasively detect ligand-induced Dynamic Mass Redistribution (DMR) in native cells. When a cell is stimulated, it responds. That response is a redistribution of biomass in the cell. Upon stimulation, proteins, protein complexes, and/or organelles in the cells move. The evanescent wave extends into the cells and exponentially decays over distance, leading to a characteristic sensing depth of ˜150 nm. Any optical response mediated through receptor activation only represents an average over the portion of the cell that the evanescent wave is sampling. The aggregation of many cellular events downstream to the receptor activation leads to a DMR signal having characteristic kinetics and amplitudes.
(§3) All assays were carried out at a controlled temperature (28° C.). At least two independent sets of experiments, each with at least three replicates, were performed.

[2] = test system: HCT116 parental cell line; experiment: Label-free RWG biosensor DMR assay; conditions: HCT116 parental
Source text: as §1, §2, §3

[3] = test system: HCT116 PTEN null cells; experiment: Calcium flux assay (FLUO-4, FDSS/FLIPR); conditions: small molecule agonists 10 micromolar, peptide and lipid agonists 1 micromolar
Source text: (§4) To screen endogenous receptors and their coupled signaling pathways, we first assembled a GPCR agonist focused library (Table 1). The library consists of 120 GPCR agonists covering over 150 known GPCRs, based on their known pharmacology including polypharmacology. For small molecule chemical agonists, the dose used was 10 micromolar. For peptide agonists, the dose used was 1 micromolar. For lipid agonists, the dose used was also 1 micromolar. For both peptides and lipids, these agonists were suspended in a solution containing 0.05% bovine […] to increase their stability.

[4] = test system: HCT116 parental cells; experiment: Calcium flux assay (FLUO-4, FDSS/FLIPR); conditions: small molecule agonists 10 micromolar, peptide and lipid agonists 1 micromolar
Source text: as §4

[5] = test system: Akt, ERK1/2, EGFR, c-Src, STAT3 phosphorylation in PTEN null cells; experiment: Western blot analysis of key signaling proteins in GPCR signaling; conditions: serum-starved, 5 min treatment; for Akt activation (phospho-Akt): SFLLR, SLIGKV 1 μM, S1P, LPA 2.5 μM
[6] = test system: Akt, ERK1/2, EGFR, c-Src, STAT3 phosphorylation in HCT116 parental cells; experiment: as above; conditions: serum-starved, 5 min treatment; for Akt activation (phospho-Akt): SFLLR, SLIGKV 1 μM, S1P, LPA 2.5 μM

Molecule | agonist DMR in PTEN deleted cell line compared to parental cell line (sensitivity to PTEN deletion) ([1]; 10 μM agonist (EGF, IGF1 1 μM)) | receptor / signaling pathway activated (pathway deconvolution of DMR with toxins) ([1]; HCT116-PTEN Null, 10 μM agonist) | receptor / signaling pathway activated (pathway deconvolution of DMR with toxins) ([2]; 10 μM agonist) | Ca^2+ mobilization (fold increase in fluorescence, FLIPR) [3] | Ca^2+ mobilization (fold increase in fluorescence, FLIPR) [4] | EGFR activation [5] | Akt activation (phospho-Akt) [5] | Akt activation (phospho-Akt) [6] | agonist-induced DMR signal ([1]; HCT116-PTEN Null, untreated, 10 μM agonist (EGF, IGF1 1 μM)) | potency to trigger DMR, PTEN null vs parental ([1]; dose response, early P-DMR or late P-DMR (50 min poststimulation) amplitudes) | efficacy to trigger DMR, PTEN null vs parental ([1]; dose response, early or late P-DMR event) | agonist-induced DMR signal ([2]; untreated, 10 μM agonist (EGF, IGF1 1 μM)) | level of phosphorylated STAT3 [5] | level of phosphorylated STAT3 [6]
Nc1ncnc2c1ncn2[C@@H]1O[C@H](COP(=O)(O)OP(=O)(O)OP(=O)(O)O)[C@@H](O)[C@H]1O [ATP] | dramatically different | activates multiple GPCRs and mediates signaling via multiple G proteins | activates multiple GPCRs and mediates signaling via multiple G proteins | robust Ca^2+ mobilization | robust Ca^2+ mobilization |  |  |  |  |  |  |  |  | 
CCCCCCCCCCCCC/C=C/[C@@H](O)[C@@H](N)COP(=O)(O)O [S1P, sphingosine-1-phosphate] |  |  |  |  |  | did not activate | did not activate | did not activate |  |  |  |  |  | 
SFLLR-amide | distinct characteristics |  |  | robust Ca^2+ mobilization | robust Ca^2+ mobilization |  | did not activate | did not activate | robust DMR signal | almost identical | higher efficacy | robust DMR signal | significantly increased | significantly increased
SLIGKV-NH2 |  |  |  | robust Ca^2+ mobilization | robust Ca^2+ mobilization |  | did not activate | did not activate |  |  |  |  |  | 
